{
  "source": "patent US20110288036A1",
  "about": "“Methods for Treating or Preventing Vascular Graft Failure” (priority 2010, published 2011)",
  "key": {"[1]": {"tested_on": "human smooth muscle cell (SMC)", "assay": "Phase contrast morphology, smooth muscle cells", "assay_type": "cell-based", "settings": "24 hours treatment, vs control cells", "description": "(§1) In order to determine the effect of pharmacological doses of MMI-0100 ([…]; SEQ ID NO: 1) on human endothelial cell (EC) and smooth muscle cell (SMC) proliferation, human EC and SMC cultures were treated with three concentrations (0.25 mM, 0.5 mM, and 1 mM) of MMI-0100 ([…] (SEQ ID NO: 1)) following pre-treatment with TNF-α."}, "[2]": {"tested_on": "JNK", "assay": "JNK radiometric kinase assay", "assay_type": "biochemical", "settings": "peptide 100 μM", "from_the_text": "A commercial radiometric assay service was used to test the specificity and potency of MMI-0100 ([…]; SEQ ID NO: 1) by measuring its half maximal inhibitory concentrations (IC50). This quantitative assay measures how much MK2 inhibitor (MMI-0100; […] (SEQ ID NO: 1)) is needed to inhibit 50% of a given biological process or component of a process (i.e., an enzyme, cell, or cell receptor). Specifically, in these assays, a positively charged substrate is phosphorylated with a radiolabeled phosphate group from an ATP if the kinase is not inhibited by an inhibitor peptide. The positively charged substrate then is attracted to a negatively charged filter membrane, quantified with a scintillation counter, and compared to a 100% activity control. ATP concentrations within 15 μM of the apparent Km for ATP were chosen since an ATP concentration near the Km may allow for the kinases to have the same relative amount of phosphorylation activity. […]\nFor the JNK (c-Jun N-terminal Kinase) radiometric assay, 5-10 mU of JNK was incubated with 50 mM Tris pH 7.5, 0.1 mM EGTA, 0.1% b-mercaptoethanol, 3 μM ATF2 (a substrate for JNK), 10 mM MgAcetate, and 10 μM of [y-^33P-ATP] in the final reaction volume of 25 μl. […] The washed P30 filtermat was dried and its radioactivity was measured by scintillation counter.\nIC50 values for inhibitor peptides were determined using Millipore's IC50 Profiler Express service. […]"}, "[3]": {"tested_on": "human endothelial cell (EC)", "assay": "MTS cell proliferation assay, endothelial cells", "assay_type": "cell-based", "settings": "pre-treatment 20 ng/ml TNF-α", "description": "Primary human aortic endothelial cells (HAEC) and primary human aortic smooth muscle cells (HASMC) were obtained from Invitrogen; primary human coronary artery endothelial cells (HCAEC) were obtained from Lonza.\nAll cultures were maintained in 25 cm^2 polystyrene tissue culture flasks in a 37° C., 5% CO2/95% air environment, with cell culture media refreshed every other day. All cells were seeded at a density of 20,000˜30,000 cells/cm^2, as required by the specific experiment, and allowed to grow to 80-90% confluence before being harvested/passaged. Only cells from early passages (numbers 2-8) were utilized in experiments.\nThe CellTiter 96® AQueous Non-Radioactive Cell Proliferation Assay (Promega) was used to assess drug effects on cell proliferation according to the manufacturer's instructions. Briefly, HAECs and HASMCs from early passages were grown to 80-90% confluence in 25 cm^2 tissue culture flasks in a 37° C./5% CO2 incubator prior to harvest. 200 μl of each type of cell suspension (at 20,000 cells/cm^2) was seeded onto separate 96-well plates to yield an approximate 60% confluence per well. Cells were allowed to adhere to the plate surface overnight, followed by addition of 20 ng/ml of TNF-α to stimulate production of inflammatory agents. After a 4-6 hour incubation period, MMI-0100 peptide drug ([…]; SEQ ID NO: 1) was added and cells incubated for another 20-24 hours. Each well was then supplemented with 100 μl of fresh medium and 20 μl of CellTiter 96® AQueous One Solution Reagent and incubated for an additional 1.5-2 hours prior to measuring absorbance of each well at 490 nm with a SoftMax®-equipped plate reader.\nas §1"}},
  "data": [
    {"sequence": "YARAAARQARAKALARQLGVAA [MMI-0100]", "values": [
      {"measurement": "morphological changes of SMC", "setting": "[1]", "value": "no obvious morphological changes"},
      {"measurement": "Percent Activity, JNK", "setting": "[2]", "value": 92, "unit": "%"},
      {"measurement": "EC proliferation vs TNF-α alone control", "setting": "[3]; 0.25 mM", "value": "slightly increased cell proliferation"},
      {"measurement": "increase in EC proliferation vs TNF-α alone control", "setting": "[3]; 0.5 mM", "value": 30, "unit": "%"},
      {"measurement": "increase in EC proliferation vs TNF-α alone control", "setting": "[3]; 1 mM", "value": 11, "unit": "%"}
    ]}
  ]
}
